Data on two molecules can be found in PMC12592502, “Unraveling the mechanisms behind the enhanced efficacy of β-lactam-based sideromycins” (Communications Biology, 2025).

One assay deals with E. coli ATCC 25922. Put plainly: MIC, broth microdilution (CLSI). The class given is cell-based, Escherichia coli. On the procedure:
(§1) All bacterial strains (see description and sources Table S1) were stored at −80 °C, and grown on tryptone soya agar (TSA) at 35 °C. The iron-deprived (ID)-MHBCA (cation-adjusted Muller-Hinton Broth, Becton Dickinson, Mississauga, ON, Canada) medium was prepared as reported by refs. [21],[50]. Briefly, MHBCA was treated with 10% Chelex® 50-100 mesh (Sigma) and stirred for 6 h at room temperature. The resin was removed by filtration. Divalent Ca^2+ (CaCl2), Mg^2+ (MgCl2), and Zn^2+(ZnSO4), were then added in the iron-depleted medium at 22, 12, and 1 μg/ml respectively. Finally, the pH was adjusted to 7.3, and the medium was sterilized with a 0.2-μm filter. Regular MHBCA (i.e., not treated with Chelex®) was used to compare the inhibitory activity of conjugates in iron-sufficient conditions.
(§2) Minimal inhibitory concentrations (MICs) were performed using a broth microdilution technique according to the Clinical and Laboratory Standards Institute (CLSI) guidelines. MICs were determined in MHBCA and in ID-MHBCA. To check the impact of β-lactamases, MICs in the presence of a β-lactamase inhibitor were also determined. The inhibitor was homogenized at 2X the final concentration and added to the bacterial inoculum just before distributing cells into the wells containing the drug dilutions. The final concentration of each inhibitor was 4 μg/mL for clavulanic acid (tested against K. pneumoniae) and 200 μg/mL for 3-aminophenylboronic acid (tested against P. aeruginosa and A. baumannii).
Background: In broth dilution the organism is exposed to a series of concentrations in liquid medium.

Another assay deals with A. baumannii ATCC 19606. As to the kind of experiment: MIC, broth microdilution (CLSI). Format: cell-based, Acinetobacter baumannii. The conditions noted are these: for MIC in combination with PAβN: + 25 µg/mL PAβN. On the procedure: as §1, with “conditions. The resin used for Chelex treatment was always fresh and had never been regenerated, ensuring consistent iron removal.” for “conditions.”
as §2

A further assay deals with E. coli ΔampC. As to the kind of experiment: MIC, Keio mutant. The class given is cell-based, Escherichia coli. On the procedure:
as §1, with “conditions. The resin used for Chelex treatment was always fresh and had never been regenerated, ensuring consistent iron removal.” for “conditions.”
as §2

Another assay relates to E. coli ΔacrAB. Put plainly: MIC, efflux pump mutant. The class given is cell-based, Escherichia coli. On the procedure: as §2
For the next assay, the system named is P. aeruginosa 1020. As to the kind of experiment: MIC, parent of efflux pump mutants. The class given is cell-based, Pseudomonas aeruginosa. The conditions noted are these: P. aeruginosa 1020, read-out: MIC. On the procedure:
as §2

Assay [1] concerns P. aeruginosa 1624 ΔmexCD-oprJ, ΔmexEF-oprN. As to the kind of experiment: MIC, efflux pump mutant. The class given is cell-based, Pseudomonas aeruginosa. On the procedure:
as §2

In assay [2] the test system is P. aeruginosa 1625 ΔmexAB-oprM, ΔmexEF-oprN. As to the kind of experiment: MIC, efflux pump mutant. The class given is cell-based, Pseudomonas aeruginosa. On the procedure: as §2
The target of another assay is PBP2 (Klebsiella pneumoniae, UniProt A6T696). Put plainly: Membrane PBP binding assay, competition with Bocillin FL. Also on record: species or system K. pneumoniae ATCC 13883. On the procedure:
Membrane extracts containing PBPs were obtained as described above. Briefly, all species were grown in 1 L of TSB until the OD600 reached 0.9. The washed pellet was incubated with lysozyme (400 μg/mL), DNase (10 μg/mL) RNase(10 μg/mL) and anti-protease cocktail (200 mg/20 mL). Lysis was done with a French press (20,000 psi) and membrane protein were pelleted by ultracentrifugation steps (100,000 × g). The pellet was suspended in a minimal volume (300–500 μL) of KP 0.05 M buffer at pH 7. The protein concentration in the membrane preparations was determined with the Micro BCA TM Protein Assay Kit (Thermo Fisher Scientific, Rockford, IL) using bovine serum albumin as a standard.
The PBP binding assay was done as described previously[36],[56],[57]. For each antibiotic concentration tested, a quantity of 25 to 40 μg of membrane preparation was used as the source of PBPs, depending on the species. For the purified PaPBP3, 150 ng was used in the assay. First, increasing concentrations of the test antibiotic was added to the membrane or purified PaPBP3 preparations and incubated for 10 min at 30 °C. The reporter molecule Bocillin FL was then added at 12.5 μM for the membrane PBPs preparations and at 500 nM for the pure PaPBP3 samples for an additional 20 min at 30 °C. All reactions were stopped with the addition of the Laemmli-loading buffer (Bio-Rad) containing fresh β-mercaptoethanol (Sigma). All reactions were then heated at 100°C for 3 min before migration on SDS-polyacrylamide discontinuous gel system (7.5% stacking and 10% separating). Control samples without Bocillin FL were also included to highlight autofluorescent proteins that are not PBPs.
To be able to visualize labeled PBPs after electrophoresis, gels were rinsed in water and fixed in a solution of 50% methanol and 7% acetic acid for 30 min. The fluorescent images of gels were obtained with the Typhoon FLA 9500 instrument (GE-Healthcare Bio-Sciences Inc., Baie-d’Urfé, QC, CA) using a 473 nm excitation wavelength. To obtain quantifiable data, the software Quantity One 1D analysis was used (version 4.6.6; Bio-Rad Laboratories, Richmond, CA). The volume (intensity × constant area) of each PBP was measured. […] All IC50 data were obtained from at least two independent PBP binding assays using two different sets of compound concentrations using a linear regression. The PBP profiles were confirmed, and the PBP numbering were determined using published data and individual molecular weights. […] For example, amdinocillin (Sigma) was used for PBP2 identification. […] The IC50 for PBP 2 of P. aeruginosa was measured by including the SDS-PAGE comigrating autofluorescent protein in the background, as done previously.

The mark [3] stands for this setting: ID-MHBCA, 0 and 1 µg/mL supplemental iron (Table S2).
The mark [4] stands for this setting: ID-MHBCA, 1 versus 0 µg/mL supplemental iron (peer review file table).
Where [5] appears, read: iron-deprived ID-MHBCA (−), 0 µg/mL supplemental iron.

One may read the MIC as the lowest concentration found to suppress growth. In general, IC50 refers to the concentration at which inhibition is half-maximal.

≈ marks a conversion by molar mass, not a printed value. Where two headings read alike, the source gives them in different places. Bounds are passed on as bounds.

PBP2, sequence (A6T696 entry or part of it): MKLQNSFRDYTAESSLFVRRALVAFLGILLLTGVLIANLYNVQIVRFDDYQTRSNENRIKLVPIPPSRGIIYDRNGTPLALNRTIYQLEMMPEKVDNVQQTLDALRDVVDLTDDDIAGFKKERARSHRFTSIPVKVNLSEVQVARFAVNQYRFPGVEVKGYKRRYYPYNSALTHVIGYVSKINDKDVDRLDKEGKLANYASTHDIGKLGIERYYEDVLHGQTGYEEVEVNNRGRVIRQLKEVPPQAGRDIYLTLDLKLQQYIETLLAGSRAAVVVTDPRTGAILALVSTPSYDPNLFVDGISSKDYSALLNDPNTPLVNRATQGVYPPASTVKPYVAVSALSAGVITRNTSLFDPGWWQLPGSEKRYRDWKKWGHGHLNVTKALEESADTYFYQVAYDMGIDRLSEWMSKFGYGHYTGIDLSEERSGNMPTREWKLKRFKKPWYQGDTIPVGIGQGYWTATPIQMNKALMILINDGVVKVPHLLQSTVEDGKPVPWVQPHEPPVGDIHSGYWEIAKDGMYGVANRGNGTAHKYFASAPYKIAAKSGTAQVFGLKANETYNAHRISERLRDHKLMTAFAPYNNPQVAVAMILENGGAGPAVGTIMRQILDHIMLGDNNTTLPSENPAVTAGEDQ

Turning to `N[C@@H](C(=O)N[C@@H]1C(=O)N2C(C(=O)O)=C(Cl)CC[C@H]12)c1ccccc1` [LOR, loracarbef, reference compound], the minimum inhibitory concentration (MIC) in the assay on E. coli ATCC 25922 (ID-MHBCA + 0.1 µg/mL supplemental iron) was 3.1 µM; with E. coli ATCC 25922 (ID-MHBCA + 1 µg/mL supplemental iron), 3.1 µM; in the assay on E. coli ATCC 25922 (MHBCA (+)) it was 3.1 µM (≈ 1.08 µg/mL); with E. coli ATCC 25922 (setting [5]) it was 1.6 µM (≈ 0.56 µg/mL); in the assay on A. baumannii ATCC 19606 (ID-MHBCA (−), 0 µg/mL supplemental iron, read-out: MIC) it was >200 µM; with A. baumannii ATCC 19606 (ID-MHBCA + 1 µg/mL supplemental iron, read-out: MIC) it was > 200 µM. For the same molecule, the minimum inhibitory concentration (MIC) is >200 µM in the assay on A. baumannii ATCC 19606 (ID-MHBCA, + 200 μg/mL APB, read-out: MIC with β-lactamase inhibitor (βI)); >200 µM in the assay with A. baumannii ATCC 19606 (MHBCA (+), no inhibitor, read-out: MIC); >200 µM in the assay on A. baumannii ATCC 19606 (MHBCA, + 200 μg/mL APB, read-out: MIC with β-lactamase inhibitor (βI)); 3.1 µM (≈ 1.08 µg/mL) in the assay on E. coli ΔampC (ID-MHBCA); 3.1 µM (≈ 1.08 µg/mL) against E. coli ΔampC (MHBCA); 3.1 µM (≈ 1.08 µg/mL) against E. coli ΔacrAB (ΔacrAB). Besides, the MIC (in the assay with P. aeruginosa 1020; in assay [1] (P. aeruginosa 1624); in assay [2] (P. aeruginosa 1625)) was > 200 µM throughout. Besides, the “MIC ratio 0/1” value with E. coli ATCC 25922 (setting [3]) worked out at 2. In the assay on E. coli ATCC 25922 (setting [4]), the “MIC ratio 1/0” value was found to be 2. Besides, in the assay on A. baumannii ATCC 19606 (MHBCA), the “MIC in combination with PAβN” value is on record as > 200 µM. Further, at PBP2 (K. pneumoniae ATCC 13883 membranes; read-out: IC50 PBP2), the half-maximal inhibitory concentration (IC50) is > 50 µM.

For the molecule `O=C(CCC(=O)N(CCCCNC(=O)c1cccc(O)c1O)CCCNC(=O)c1cccc(O)c1O)NCCCCCN(O)C(=O)CCCC(=O)NC(C(=O)NC1C(=O)N2C(C(=O)O)=C(Cl)CSC12)c1ccccc1` (stereo not drawn) [MCEF, mixed ligand bis-catechol-mono-hydroxamate-cefaclor], the minimum inhibitory concentration (MIC) in the assay on E. coli ATCC 25922 (Escherichia coli, ATCC25922, ID-MHBCA + 1 µg/mL supplemental iron) is 25 µM; in the assay with E. coli ATCC 25922 (Escherichia coli, ATCC25922, MHBCA (+)), 6.3 to 25 µM (≈ 6.81 to 27 µg/mL); in the assay on E. coli ATCC 25922 (Escherichia coli, ATCC25922, iron-deprived ID-MHBCA (−), 0 µg/mL supplemental iron), > 200 µM; against E. coli ATCC 25922 (setting [5]), >200 µM; in the assay on A. baumannii ATCC 19606 (Acinetobacter baumannii, ATCC19606, ID-MHBCA (−), 0 µg/mL supplemental iron, read-out: MIC), 0.2 µM (≈ 0.216 µg/mL); in the assay on A. baumannii ATCC 19606 (Acinetobacter baumannii, ATCC19606, ID-MHBCA + 0.1 µg/mL supplemental iron, read-out: MIC), 1.6 µM. Further, the MIC was > 6.3 µM in the assay on A. baumannii ATCC 19606 (Acinetobacter baumannii, ATCC19606, ID-MHBCA + 1 µg/mL supplemental iron, read-out: MIC); 0.012 µM in the assay on A. baumannii ATCC 19606 (Acinetobacter baumannii, ATCC19606, ID-MHBCA, + 200 μg/mL APB, read-out: MIC with β-lactamase inhibitor (βI)); 1.6 µM (≈ 1.73 µg/mL) in the assay on A. baumannii ATCC 19606 (Acinetobacter baumannii, ATCC19606, MHBCA (+), no inhibitor, read-out: MIC); 0.4 µM with A. baumannii ATCC 19606 (Acinetobacter baumannii, ATCC19606, MHBCA, + 200 μg/mL APB, read-out: MIC with β-lactamase inhibitor (βI)); > 200 µM in the assay on E. coli ΔampC (Escherichia coli, ID-MHBCA); 13 µM (≈ 14.1 µg/mL) against E. coli ΔampC (Escherichia coli, MHBCA). Further, the MIC with E. coli ΔacrAB (Escherichia coli) was 3.1 µM (≈ 3.35 µg/mL); in the assay with P. aeruginosa 1020 (Pseudomonas aeruginosa) it was > 100 µM; in assay [1] (Pseudomonas aeruginosa), > 100 µM; in assay [2] (Pseudomonas aeruginosa) it was > 100 µM. Further, the “MIC ratio unconjugated β-lactam/conjugate” value with E. coli ATCC 25922 (ID-MHBCA) is <0.016; in the assay on A. baumannii ATCC 19606 (ID-MHBCA), >1024; with A. baumannii ATCC 19606 (MHBCA), >128. In the assay on A. baumannii ATCC 19606 (setting [3]), the “MIC ratio 0/1” value is reported as > 32. Also, the “MIC ratio 1/0” value with A. baumannii ATCC 19606 (setting [4]) is reported as > 32. Besides, in the assay with A. baumannii ATCC 19606 (MHBCA), the “MIC in combination with PAβN” value is on record as > 6.3 µM. Also, the half-maximal inhibitory concentration (IC50) at PBP2 (read-out: IC50 PBP2; K. pneumoniae ATCC 13883 membranes) came out at 16.8 ± 0.3 µM.
